According to patent publication US20020137929A1, “1 - (3-heterocyclylphenyl) isothiourea, -isourea, -guanidine and -amidine herbicidal agents” (Intellectual Property Department, BASF Aktiengesellschaft, priority 1998, published 2002):

Key:
ABUTH (Velvetleaf) = experiment: Preemergence herbicidal evaluation; format: in vivo, Abutilon theophrasti; conditions: rated 4-5 weeks after treatment, rating scale 0-9
Summary of the method: (§1)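 In this greenhouse assay, monocot and dicot seeds are planted in soil and treated prior to emergence with an aqueous acetone spray (about 0.0156-0.500 kg/ha). Plants are assessed visually against control on a 0-9 scale after 4-5 weeks.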

[1] = test system: TRZAWR (Wheat, Winter, cv Riband); experiment: Postemergence herbicidal evaluation; format: in vivo, Triticum aestivum; conditions: postemergence
Summary of the method: (§2)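 Herbicidal effect was judged by eye on a 0–9 scale covering stand, vigor, deformity, size and chlorosis, compared with controls, four to five weeks after seedlings about two weeks old were sprayed (40 psi, ~0.0156–0.500 kg/ha).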

[2] = test system: IPOHE (Morningglory, Ivyleaf); experiment: Postemergence herbicidal evaluation; format: in vivo, Ipomoea hederacea; conditions: postemergence
Summary of the method: as §2

[3] = test system: SAGPY (Arrowhead (Pygmaea)); experiment: Preemergence weed control under flooded paddy conditions; format: in vivo, Sagittaria pygmaea; conditions: rated 3-4 weeks after treatment
Summary of the method: (§3)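 Values are visual 0-9 scores against a control for a preemergence application into paddy flood water at about 0.0313 to 0.500 kg/ha. Greenhouse duration was three to four weeks.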

CASOB (Sicklepod) [4] = experiment: Preemergence herbicidal evaluation; format: in vivo, Cassia obtusifolia; conditions: rated 4-5 weeks after treatment, rating scale 0-9
Summary of the method: as §1

AMBEL (Ragweed, Common) [5] = experiment: Preemergence herbicidal evaluation; format: in vivo, Ambrosia artemisifolia; conditions: rated 4-5 weeks after treatment, rating scale 0-9
Summary of the method: as §1

AMBEL (Ragweed, Common) [6] = experiment: Postemergence herbicidal evaluation; format: in vivo, Ambrosia artemisifolia; conditions: postemergence
Summary of the method: as §2

[7] = test system: GLXMAW (Soybean, Williams); experiment: Postemergence herbicidal evaluation; format: in vivo, Glycine max, (L.) Merr. cv Williams; conditions: postemergence
Summary of the method: as §2

[8] = test system: IPOHE (Morningglory, Ivyleaf); experiment: Preemergence herbicidal evaluation; format: in vivo, Ipomoea hederacea; conditions: rated 4-5 weeks after treatment, rating scale 0-9
Summary of the method: as §1

ECHCG (Barnyardgrass) = experiment: Postemergence herbicidal evaluation; format: in vivo, Echinochloa crus-galli; conditions: postemergence
Summary of the method: as §2

[9] = test system: CHEAL (Lambsquarters, Common); experiment: Postemergence herbicidal evaluation; format: in vivo, Chenopodium album; conditions: postemergence
Summary of the method: as §2

MOOVA (Monochoria) = experiment: Preemergence weed control under flooded paddy conditions; format: in vivo, Monochoria vaginalis; conditions: rated 3-4 weeks after treatment
Summary of the method: as §3

ORYSAT (Rice, Tebonnet) = experiment: Preemergence herbicidal evaluation; format: in vivo, Oryza sativa, (L.) Tebonnet; conditions: rated 4-5 weeks after treatment, rating scale 0-9
Summary of the method: as §1

[10] = test system: CHEAL (Lambsquarters, Common); experiment: Preemergence herbicidal evaluation; format: in vivo, Chenopodium album; conditions: rated 4-5 weeks after treatment, rating scale 0-9
Summary of the method: as §1

[11] = test system: GLXMAW (Soybean, Williams); experiment: Preemergence herbicidal evaluation; format: in vivo, Glycine max, (L.) Merr. cv Williams; conditions: rated 4-5 weeks after treatment, rating scale 0-9
Summary of the method: as §1

CASOB (Sicklepod) [12] = experiment: Postemergence herbicidal evaluation; format: in vivo, Cassia obtusifolia; conditions: postemergence
Summary of the method: as §2

Cc1ccc(CN2C(=O)CSC2=Nc2cc(-n3c(=O)cc(C(F)(F)F)n(C)c3=O)c(F)cc2Cl)cc1C [Compound 147, 3-{4-Chloro-5-{[3-(3,4-dimethylbenzyl)-4-oxo-2-thiazolidinylidene]amino}-2-fluorophenyl}-1-methyl-6-(trifluoromethyl)-2,4(1H,3H)-pyrimidinedione]
Preemergence herbicidal rating ABUTH (ABUTH (Velvetleaf); rate 0.0156 kg/ha): 0.0 | Preemergence herbicidal rating ABUTH (ABUTH (Velvetleaf); rate 0.0313 kg/ha): 0.0 | Preemergence herbicidal rating ABUTH (ABUTH (Velvetleaf); rate 0.0625 kg/ha): 0.0 | Preemergence herbicidal rating ABUTH (ABUTH (Velvetleaf); rate 0.1250 kg/ha): 4.0 | Preemergence herbicidal rating ABUTH (ABUTH (Velvetleaf); rate 0.2500 kg/ha): 7.0 | herbicidal rating TRZAWR ([1]; rate 0.0156 kg/ha): 2.5 | herbicidal rating TRZAWR ([1]; rate 0.0313 kg/ha): 3.5 | herbicidal rating TRZAWR ([1]; rate 0.0625 kg/ha): 4.0 | herbicidal rating IPOHE ([2]; rate 0.0156 kg/ha): 9.0 | herbicidal rating IPOHE ([2]; rate 0.0313 kg/ha): 9.0 | herbicidal rating IPOHE ([2]; rate 0.0625 kg/ha): 9.0 | herbicidal effect rating, SAGPY ([3]; 0.0313 kg/ha): 0.0 | herbicidal effect rating, SAGPY ([3]; 0.0625 kg/ha): 0.0 | herbicidal effect rating, SAGPY ([3]; 0.1250 kg/ha): 0.0 | herbicidal effect rating, SAGPY ([3]; 0.2500 kg/ha): 2.0 | Preemergence herbicidal rating CASOB (CASOB (Sicklepod) [4]; rate 0.0156 kg/ha): 0.0 | Preemergence herbicidal rating CASOB (CASOB (Sicklepod) [4]; rate 0.0313 kg/ha): 0.0 | Preemergence herbicidal rating CASOB (CASOB (Sicklepod) [4]; rate 0.0625 kg/ha): 0.0 | Preemergence herbicidal rating CASOB (CASOB (Sicklepod) [4]; rate 0.1250 kg/ha): 0.0 | Preemergence herbicidal rating CASOB (CASOB (Sicklepod) [4]; rate 0.2500 kg/ha): 5.0 | Preemergence herbicidal rating AMBEL (AMBEL (Ragweed, Common) [5]; rate 0.0156 kg/ha): 0.0 | Preemergence herbicidal rating AMBEL (AMBEL (Ragweed, Common) [5]; rate 0.0313 kg/ha): 0.0 | Preemergence herbicidal rating AMBEL (AMBEL (Ragweed, Common) [5]; rate 0.0625 kg/ha): 0.0 | Preemergence herbicidal rating AMBEL (AMBEL (Ragweed, Common) [5]; rate 0.1250 kg/ha): 1.0 | Preemergence herbicidal rating AMBEL (AMBEL (Ragweed, Common) [5]; rate 0.2500 kg/ha): 4.0 | herbicidal rating AMBEL (AMBEL (Ragweed, Common) [6]; rate 0.0156 kg/ha): 6.0 | herbicidal rating AMBEL (AMBEL (Ragweed, Common) [6]; rate 0.0313 kg/ha): 9.0 | herbicidal rating AMBEL (AMBEL (Ragweed, Common) [6]; rate 0.0625 kg/ha): 7.0 | herbicidal rating GLXMAW ([7]; rate 0.0156 kg/ha): 5.5 | herbicidal rating GLXMAW ([7]; rate 0.0313 kg/ha): 5.5 | herbicidal rating GLXMAW ([7]; rate 0.0625 kg/ha): 6.0 | Preemergence herbicidal rating IPOHE ([8]; rate 0.0156 kg/ha): 0.0 | Preemergence herbicidal rating IPOHE ([8]; rate 0.0313 kg/ha): 0.0 | Preemergence herbicidal rating IPOHE ([8]; rate 0.0625 kg/ha): 0.0 | Preemergence herbicidal rating IPOHE ([8]; rate 0.1250 kg/ha): 0.0 | Preemergence herbicidal rating IPOHE ([8]; rate 0.2500 kg/ha): 0.0 | herbicidal rating ECHCG (ECHCG (Barnyardgrass); rate 0.0156 kg/ha): 1.0 | herbicidal rating ECHCG (ECHCG (Barnyardgrass); rate 0.0313 kg/ha): 2.0 | herbicidal rating ECHCG (ECHCG (Barnyardgrass); rate 0.0625 kg/ha): 1.0 | herbicidal rating CHEAL ([9]; rate 0.0156 kg/ha): 5.0 | herbicidal rating CHEAL ([9]; rate 0.0313 kg/ha): 6.0 | herbicidal rating CHEAL ([9]; rate 0.0625 kg/ha): 9.0 | herbicidal effect rating, MOOVA (MOOVA (Monochoria); 0.0313 kg/ha): 7.0 | herbicidal effect rating, MOOVA (MOOVA (Monochoria); 0.0625 kg/ha): 9.0 | herbicidal effect rating, MOOVA (MOOVA (Monochoria); 0.1250 kg/ha): 9.0 | herbicidal effect rating, MOOVA (MOOVA (Monochoria); 0.2500 kg/ha): 9.0 | Preemergence herbicidal rating ORYSAT (ORYSAT (Rice, Tebonnet); rate 0.0156 kg/ha): 0.0 | Preemergence herbicidal rating ORYSAT (ORYSAT (Rice, Tebonnet); rate 0.0313 kg/ha): 0.0 | Preemergence herbicidal rating ORYSAT (ORYSAT (Rice, Tebonnet); rate 0.0625 kg/ha): 0.0 | Preemergence herbicidal rating ORYSAT (ORYSAT (Rice, Tebonnet); rate 0.1250 kg/ha): 0.0 | Preemergence herbicidal rating ORYSAT (ORYSAT (Rice, Tebonnet); rate 0.2500 kg/ha): 0.0 | Preemergence herbicidal rating CHEAL ([10]; rate 0.0156 kg/ha): 0.0 | Preemergence herbicidal rating CHEAL ([10]; rate 0.0313 kg/ha): 0.0 | Preemergence herbicidal rating CHEAL ([10]; rate 0.0625 kg/ha): 6.0 | Preemergence herbicidal rating CHEAL ([10]; rate 0.1250 kg/ha): 9.0 | Preemergence herbicidal rating CHEAL ([10]; rate 0.2500 kg/ha): 9.0 | Preemergence herbicidal rating GLXMAW ([11]; rate 0.0156 kg/ha): 1.0 | Preemergence herbicidal rating GLXMAW ([11]; rate 0.0313 kg/ha): 0.0 | Preemergence herbicidal rating GLXMAW ([11]; rate 0.0625 kg/ha): 0.0 | Preemergence herbicidal rating GLXMAW ([11]; rate 0.1250 kg/ha): 0.0 | Preemergence herbicidal rating GLXMAW ([11]; rate 0.2500 kg/ha): 1.0 | herbicidal rating CASOB (CASOB (Sicklepod) [12]; rate 0.0156 kg/ha): 1.0 | herbicidal rating CASOB (CASOB (Sicklepod) [12]; rate 0.0313 kg/ha): 1.0 | herbicidal rating CASOB (CASOB (Sicklepod) [12]; rate 0.0625 kg/ha): 2.0
